Laboratory results: patent publication US10501441B2, “Substituted imidazolylcarboxamides as pesticides” (BAYER CROPSCIENCE AKTIENGESELLSCHAFT, priority 2016, dated 2019)

Legend:
[1] = log P by reversed-phase HPLC (C18), EEC directive 79/831 Annex V.A8, neutral range; type: physicochemical; settings: neutral range, pH 7.8; HPLC C18, 43° C.
Method: a) The log P values reported in the tables and preparation examples above were determined in accordance with EEC directive 79/831 Annex V.A8 by HPLC (High Performance Liquid Chromatography) using a reversed-phase column (C18). Temperature 43° C. The calibration is effected with unbranched alkan-2-ones (having 3 to 16 carbon atoms), for which the log P values are known. […] The log P values for the acidic range (as log P [a]) and/or for the neutral range (as log P [n]) were stated in the tables and preparation examples above.

Boophilus microplus = Boophilus microplus - injection test; type: in vivo; settings: 20 μg/animal, engorged adult female cattle ticks, after 7 days
Method: Boophilus microplus—Injection Test
Solvent: dimethyl sulphoxide
To produce a suitable preparation of active compound, 10 mg of active compound are mixed with 0.5 ml of solvent and the concentrate is diluted with solvent to the desired concentration.
1 μl of the active compound solution is injected into the abdomen of 5 engorged adult female cattle ticks (Boophilus microplus). The animals are transferred into dishes and kept in a climate-controlled room.
Efficacy is assessed after 7 days by laying of fertile eggs. Eggs which are not visibly fertile are stored in a climate-controlled cabinet until the larvae hatch after about 42 days. An efficacy of 100% means that none of the ticks has laid any fertile eggs; 0% means that all the eggs are fertile.

**Q.** What does the source list for `CN(C(=O)c1cnc(-n2cnc(C#N)n2)n1C)c1cccnc1` [I-1-031]?
**A.** Logp [n] [1]: 1.22; efficacy (laying of fertile eggs) (Boophilus microplus): 80%
